Entries after “also recorded” stand apart in the source; their conditions may differ.
Experiments:
caspase 3 = assay: Caspase 3 in cell-free extracts treated with drugs; assay type: biochemical; conditions: results not shown
[1] = system: biosynthetic pathways of DNA, RNA or proteins; assay: Metabolic action and biosynthetic pathways of DNA, RNA or proteins
DIME-tolerant clones [2] = assay: DIME uptake by DIME-tolerant clones; conditions: DIME-tolerant clones grown in 1.5 μM DIME
Experimental: (§2) DIME-tolerant clones DR6and DR 7 were isolated by incubation of cells in a mediim containing 1.5 μM DIME for 11 days. At that time surviving colonies were picked with the use of cloning rings and plated for growth in fresh mediim still containing 1.5 μM DIME. After two weeks of growth in the presence of drug the cells were aliquoted and frozen. For each experiment a vial of frozen cells was thawed, the cells were plated in the absence of drug, and incubated for 2-3 days in drug-free mediim.

DIME-tolerant clones [3] = system: DIME-tolerant clones
Experimental: as §2

microtubules = assay: Microtubule binding
[4] = system: metaphase arrest in cancer cells; assay: Metaphase block (mitotic block); assay type: cell-based
Text: Metaphase was quantitated as reported by Mendeleyev et al., International Journal of Oncology 10:689-695 (1997).
Since vincristine and vinblastine were equivalent here we illustrate only DIME-vinblastine interaction on mitotic block.

[5] = system: DIME-tolerant cells (DR6, DR7); assay: Cell growth of DIME-tolerant cells; assay type: cell-based, human
Experimental: c. MDA-MB-231 human mammary cancer cells were cultured and treated as reported previously by Mendeleyev et al., International Journal of Oncology 10:689-695 (1997) and Zhen et al., International Journal of Oncology 10:689-695 (1997). For the assay of cell growth kinetics cells, were seeded into 2cm^2 wells (24-well plates) at a density of 8×10^3 /cm^2 at the time of seeding. Vincristine (or vinblastine) and DIME (or DIPE) were added from DMSO dilutions (1-2 μl/ 500 μl culture mediim) either from separate drug solutions or for the construction of median effect plot (FIG. 1) from a pre-made mixture of both drugs (e.g. 0.75 μM DIME+2 nM vincristine) and simultaneous dilutions thereof (Chou et al. Eur. J. Biochem. 115: 207-216 (1981)). The cultures were incubated at 37° C. for 4 days and growth rates, leading to near confluency in drug-free controls, were monitored by cell counting in a haemocytometer after detachment by trypsin treatment Mendeleyev et al., International Journal of Oncology 10:689-695 (1997) and Zhen et al., International Journal of Oncology 10:689-695 (1997). […]

malignant tumor growth = assay: Activity of DIME in vivo (general statement)
cells (DNA breaks) = assay: DNA breaks in cells incubated with DIME; assay type: cell-based
[6] = system: MDA-MB-231 human mammary cancer cells; assay: Colony formation (cell killing); assay type: cell-based
Experimental: (§1) c. MDA-MB-231 human mammary cancer cells were cultured and treated as reported previously by Mendeleyev et al., International Journal of Oncology 10:689-695 (1997) and Zhen et al., International Journal of Oncology 10:689-695 (1997). For the assay of cell growth kinetics cells, were seeded into 2cm^2 wells (24-well plates) at a density of 8×10^3 /cm^2 at the time of seeding. Vincristine (or vinblastine) and DIME (or DIPE) were added from DMSO dilutions (1-2 μl/ 500 μl culture mediim) either from separate drug solutions or for the construction of median effect plot (FIG. 1) from a pre-made mixture of both drugs (e.g. 0.75 μM DIME+2 nM vincristine) and simultaneous dilutions thereof (Chou et al. Eur. J. Biochem. 115: 207-216 (1981)). The cultures were incubated at 37° C. for 4 days and growth rates, leading to near confluency in drug-free controls, were monitored by cell counting in a haemocytometer after detachment by trypsin treatment Mendeleyev et al., International Journal of Oncology 10:689-695 (1997) and Zhen et al., International Journal of Oncology 10:689-695 (1997). Mathematical analysis of growth curves and median effects and isobolograms were carried out by published procedures (Chou et al. J. Theor. Biol. 65: 345-356 (1977), Chou et al. Eur. J. Biochem. 115: 207-216 (1981) and Chou et al. Adv. in Enzyme Regulation 22:27-55 (1984)) and error bars indicate SD=Σx^2 +L -(Σx)^2 /n where X is the numerical results with n=3-5.
e. Colony formation was quantitated as reported by. Each colony of 50 cells is the outgrowth from one cell, plated 10 days before colony counting.

tadpole metamorphosis = conditions: in vivo; cited from earlier work
[7] = system: MDA-MB-231 human mammary cancer cells; assay: Cell growth kinetics, median effect and isobologram; assay type: cell-based; conditions: 0.75 μM DIME (or DIPE) or 1-2 nM vincristine alone
Experimental: as §1
Kinetics of vincristine-DIME interactions: Interpretation of conventional isobolograms, consisting of plots of I50 values of two drugs alone and in combination is valid only if it is proven kinetically that both drugs bind at mutually exclusive sites.
Isobologram analysis of the combined action of DIME and vincristine is illustrated in FIG. 2, and it is evident that the action of the two drugs in combination exceed an additive effect, which is depicted by a concave curve, contrasting with additive action, which would display a straight line connecting the I50 values for each drug alone (dotted line in FIG. 2). […]

**Q.** Which results are given for COC(=O)c1cc(I)c(Oc2ccc(OC)cc2)c(I)c1 [DIME, methyl 3,5-diiodo-4-(4'-methoxyphenoxy) benzoate]?
**A.** Caspase 3 increase in cell-free extracts (caspase 3): do not show an increase in caspase 3; Inhibition of biosynthetic pathways of DNA, RNA or proteins [1]: nor does it inhibit the biosynthetic pathways of DNA, RNA or proteins; Metabolic action [1]: no metabolic action; Reduction of DIME uptake (DIME-tolerant clones [2]): 50%; Drug permeation in DIME-tolerant cells (DIME-tolerant clones [3]): significant decrease of drug permeation; Binding to microtubules (microtubules): bind to microtubules; M-block [4]: induces M-block; Doubling time of DIME-tolerant cells after removal of DIME ([5]; DIME removed): 40 to 45 h; Doubling time of DIME-tolerant cells ([5]; in the presence of 1.5 μM DIME, cancer cells 20 hrs): 70 to 78 h; Activity in vivo (malignant tumor growth): highly active; DNA breaks (cells (DNA breaks)): induces DNA breaks; Inhibition of colony formation, DIME versus DIPE ([6]; FIG. 4a): equivalency; also recorded: Equivalent effectivity; Reduction of colony formation in parent cell line (factor) ([6]; FIG. 8, parent (wild type) cell line): 10^3; Metabolic or cell differentiating activity (tadpole metamorphosis) (tadpole metamorphosis): no significant metabolic or cell differentiating activity; Growth rate with single drug [7]: do not elicit effects that exceed the SD of average cell growth rates; also recorded: fall within SD values
